Columns and labels:
MCF-7 cells = conditions: compared to E2; cited from earlier work
[1] = Ex.4 therapeutic HIE rat model: body weight; format: in vivo; conditions: PND14
Protocol: To study the therapeutic effect of estetrol, newborn rat pups were assigned to one of the following 6 groups at postnatal day 7: sham group (n=29), vehicle group (n=20), 1 mg/kg E4 group (n=16), 5 mg/kg E4 group (n=19), 10 mg/kg day E4 (n=17) and 50 mg/kg day E4 group (n=15). At postnatal day 7 animals were anesthetized with isoflurane (induction, 3.0%; maintenance, 1.5%), and the rat pups from vehicle and E4 groups passed through surgery encompassing left common carotid artery double ligation and cut. After surgery, the pups were returned to their dams and allowed to recover for 1 hour. The pups were then placed in a humidified hypoxic in vivo cabinet (CoyLab). Hypoxia was produced by the inhalation of 11%-8% of oxygen balanced by nitrogen at decreased concentration of oxygen for 20 minutes, followed by inhalation of 8% oxygen and 92% nitrogen at constant concentration for 35 minutes. All the manipulations were performed at 37° C.
Upon retrieval from the hypoxia chamber the rat pups were injected intraperitoneally either by vehicle (vehicle group) or by E4 (1 mg/kg, 5 mg/kg, 10 mg/kg or 50 mg/kg) in accordance to the group assignment. The animals from the sham group went through similar procedures but proceeded neither left common carotid artery ligation and cut followed by hypoxia nor vehicle or estetrol administration. Rat pups recovered with their dams until being sacrificed at postnatal day 14.
To evaluate the post-operative well-being of rat pups due to the performed manipulations and estetrol treatment, the post-operative body weight was measured at postnatal days 7 and 14.

[2] = tested on: myelin-related mRNA (CNP, MAG, MBP); experiment: Ex.6 IL-1β induced diffuse white matter injury mouse model: myelin gene expression at P10 (qRT-PCR); format: in vivo
Protocol: Experimental protocols were approved by the institutional guidelines of the Institut National de la Santé et de la Recherche Scientifique (Inserm, France), and met the guidelines for the United States Public Health Service's Policy on Humane Care and Use of Laboratory Animals (NIH, Bethesda, Md., USA). Experiments were performed using OF1 strain mice purchased from Charles River (L'Arbresle, France) and born in our animal facility. Animals were housed under a 12 h light-dark cycle, had access to food and water ad libitum. Sex was determined at birth and confirmed at sacrifice. To avoid any potential variability linked to sex to differences. only male pups were used. Mice received twice a day from P1 to P4 and once on P5 a 5 μl intraperitoneal injection containing either PBS alone (sham group) or 10 μg/kg/dose recombinant mouse IL-1β in PBS. Vehicle group received only IL-1β injections while 10 μg E4 (5 mg/kg) or 20 μg E4 (10 mg/kg) was added to IL-1β once a day from P1 to P5 for E4 treated groups. Pups were sacrificed 3 hours after the first intraperitoneal injection at P1, 3 hours after last treatment at P5 or at P10 by intracardiac perfusion with NaCl 0.9% after anaesthesia by inhaled isoflurane.
At P10, anterior cortex and underneath white matter were collected and immediately frozen in nitrogen liquid, before storage at −80° C. for study of myelin-related mRNA expression.
Preparation of samples for quantitative reverse-transcriptase polymerase-chain reaction (qRT-PCR), primer design, and PCR protocol, were similar to that previously described (Favrais et al., 2011; Chhor et al., 2013). Briefly, RNA extraction was performed by with RNeasy mini kit according to the manufacturer's instructions (Qiagen, Courtaboeuf, France). RNA quality and concentration were assessed by spectrophotometry with the Nanodrop™ apparatus (Thermoscientific, Wilmington, Del., USA). Total RNA (0.5-1 μg) was subjected to reverse transcription using the iScript™ cDNA synthesis kit (Bio-Rad, Marnes-la-Coquette, France). qPCR was using SYBR Green Supermix (Bio-Rad). The relative expression of genes of interest (GOI) were expressed relative to expression of the reference gene, ribosomal protein L13a (Rpl13a) for CD11b+ cells and Glyceraldehyde 3-phosphate dehydrogenase (GAPDH) for O4+ cells and anterior brains based on reference gene suitability testing. Analyses were performed with the Biorad CFX manager 2.1 software. The relative quantities are expressed as the specific ratio between the gene of interest and Rpl13 or GAPDH. The data are presented as relative mRNA units with respect to control values (expressed as a fold-difference with respect to the mean of sham values).

[3] = Ex.2 neonatal HIE rat model, pre-treatment: body weight; format: in vivo
Protocol: Sprague-Dawley pregnant rats were obtained from Janvier (France). After delivery newborn rat pups were housed with their dams and reared normally at room temperature (25° C.) under a 12-hour light-dark cycle. All experimental protocols were approved by the University of Liege Ethical Committee. All efforts were made to minimize animal suffering.
Estetrol (E4) was dissolved in saline solution at different concentrations and an equal volume (5 μl/g) of the solution was injected intraperitoneally into the pups from the E4 group(s). Rat pups from the Vehicle group were intraperitoneally injected a saline solution. Rat pups from the Sham group were not injected at all.
Ischemia was produced by surgery encompassing left common carotid artery double ligation and cut; hypoxia was produced by the inhalation of 11%-8% of oxygen balanced by nitrogen at decreased concentration of oxygen for 20 minutes, followed by inhalation of 8% oxygen and 92% nitrogen at constant concentration for 35 minutes.
After delivery, newborn rat pups were assigned to one of the following 4 groups: Sham group, Vehicle group, E4 5 mg/kg/per day group and E4 50 mg/kg/per day group. From day 4 to day 7 inclusive, rat pups were injected intraperitoneally either vehicle (Vehicle group) or E4 (5 mg/kg or 50 mg/kg in accordance to the group assignment) or not injected at all (Sham group). At day 7, 30 minutes after last injection, animals from Vehicle and E4 (5 mg/kg or 50 mg/kg) groups passed through surgery encompassing left common carotid artery double ligation and cut, followed by hypoxia produced by the inhalation of 11%-8% of oxygen balanced by nitrogen at decreased concentration for 20 minutes, followed by inhalation of 8% oxygen and 92% nitrogen at constant concentration for 35 minutes. The Sham group went through similar procedures without left common carotid artery ligation and hypoxia. All the manipulations were performed at 37° C. Rat pups recovered with their dams until being sacrificed at postnatal day 14. […]

C[C@]12CC[C@@H]3c4ccc(O)cc4CC[C@H]3[C@@H]1[C@@H](O)[C@@H](O)[C@@H]2O [E4, 1,3,5(10)-estratrien-3,15α,16α,17β-tetrol]
estrogenic activity in growth promotion of MCF-7 cells (MCF-7 cells): weak estrogen
body weight ([1]; 1 mg/kg E4 single ip dose after HI, vs vehicle): significantly higher body weight than the vehicle group
body weight ([1]; 5 mg/kg E4 single ip dose after HI, vs sham): Sham operated animals showed significantly higher body weight
body weight ([1]; 5 mg/kg E4 single ip dose after HI, vs vehicle): significantly higher body weight than the vehicle group
body weight ([1]; 10 mg/kg E4 single ip dose after HI, vs vehicle): significantly higher body weight than the vehicle group
body weight ([1]; 50 mg/kg E4 single ip dose after HI, vs vehicle): significantly higher body weight than the vehicle group
CNP mRNA ([2]; E4 5 mg/kg, vs IL-1β): significant increase
MAG mRNA ([2]; E4 5 mg/kg, vs IL-1β): significant increase
MBP expression ([2]; E4 5 mg/kg, vs control group): not statistically different
MBP expression, increase ([2]; E4 5 mg/kg, vs vehicle group (p=0.11)): not significant
expression of myelin genes (MAG, MBP, CNP) ([2]; IL-1β+E4 10 mg/kg, vs IL-1β): No difference
body weight ([3]; E4 5 mg/kg ip day 4-7 before HI, day 8, vs Sham): sham operated group had significantly higher body weight
body weight ([3]; E4 5 mg/kg ip day 4-7 before HI, post-operative days 13 and 14, vs vehicle): significantly higher body weight than vehicle treated animals
body weight ([3]; E4 50 mg/kg ip day 4-7 before HI, day 10, vs Sham): sham operated group had significantly higher body weight
